Data from the NIST ThermoML archive (doi:10.1021/acs.jced.5b00813).

How the values were obtained:
[1] = xn = mol fraction of the nth substance listed; conditions: 298.15 K, 100 kPa, Liquid, Vibrating tube method
[2] = excess molar enthalpy (molar enthalpy of mixing); xn = mol fraction of the nth substance listed; conditions: 298.15 K, 100 kPa, Liquid, Calvet calorimetry
[3] = refractive index (Na D-line) (dimensionless); conditions: 298.15 K; 101.33 kPa; Liquid; Standard Abbe refractometry
[4] = 298.15 K; 100 kPa; Liquid; Vibrating tube method

COC(C)=O [methyl ethanoate] + CC(C)CC(C)(C)C
Conditions	excess molar enthalpy [kcal/mol]	mass density [kg/m3]
[1], x2 = 0	–	927.16
[1], x2 = 0.0375	–	906.89
[1], x2 = 0.1025	–	876.58
[1], x2 = 0.1652	–	851.09
[1], x2 = 0.1775	–	846.59
[1], x2 = 0.2189	–	832.07
[1], x2 = 0.2615	–	818.03
[1], x2 = 0.302	–	805.95
[1], x2 = 0.3902	–	782.41
[1], x2 = 0.4061	–	778.52
[1], x2 = 0.4249	–	774.09
[1], x2 = 0.4627	–	765.54
[1], x2 = 0.5239	–	752.92
[1], x2 = 0.5411	–	749.57
[1], x2 = 0.61	–	737.18
[1], x2 = 0.6612	–	728.76
[1], x2 = 0.6786	–	726.1
[1], x2 = 0.7359	–	717.6
[1], x2 = 0.8086	–	708.07
[1], x2 = 0.8803	–	699.86
[1], x2 = 0.9521	–	692.07
[2], x2 = 0.02	0.037	–
[2], x2 = 0.0525	0.0989	–
[2], x2 = 0.0892	0.158	–
[2], x2 = 0.1241	0.205	–
[2], x2 = 0.1687	0.25	–
[2], x2 = 0.2084	0.291	–
[2], x2 = 0.256	0.331	–
[2], x2 = 0.3079	0.369	–
[2], x2 = 0.3608	0.397	–
[2], x2 = 0.3915	0.409	–
[2], x2 = 0.4323	0.421	–
[2], x2 = 0.4764	0.428	–
[2], x2 = 0.5406	0.42	–
[2], x2 = 0.6163	0.393	–
[2], x2 = 0.6888	0.348	–
[2], x2 = 0.7833	0.275	–
[2], x2 = 0.8597	0.189	–
[2], x2 = 0.9422	0.0851	–

COC(C)=O [methyl ethanoate] + CCCCCCCC
Conditions	excess molar enthalpy [kcal/mol]	mass density [kg/m3]
[1], x2 = 0	–	927.16
[1], x2 = 0.0493	–	901.46
[1], x2 = 0.1011	–	878.04
[1], x2 = 0.1517	–	857.91
[1], x2 = 0.2033	–	839.55
[1], x2 = 0.253	–	823.66
[1], x2 = 0.3008	–	809.86
[1], x2 = 0.3471	–	797.79
[1], x2 = 0.3946	–	786.15
[1], x2 = 0.4523	–	773.45
[1], x2 = 0.4951	–	764.76
[1], x2 = 0.5307	–	758.11
[1], x2 = 0.5777	–	749.93
[1], x2 = 0.5898	–	747.92
[1], x2 = 0.6146	–	743.98
[1], x2 = 0.6388	–	740.27
[1], x2 = 0.6699	–	735.52
[1], x2 = 0.7238	–	728.1
[1], x2 = 0.7841	–	720.49
[1], x2 = 0.8333	–	714.64
[1], x2 = 0.8887	–	708.75
[1], x2 = 0.9311	–	704.69
[1], x2 = 0.9585	–	702.21
[2], x2 = 0.0466	0.0992	–
[2], x2 = 0.1009	0.194	–
[2], x2 = 0.1504	0.271	–
[2], x2 = 0.2057	0.338	–
[2], x2 = 0.258	0.391	–
[2], x2 = 0.3043	0.427	–
[2], x2 = 0.3516	0.455	–
[2], x2 = 0.3642	0.464	–
[2], x2 = 0.3999	0.479	–
[2], x2 = 0.446	0.487	–
[2], x2 = 0.5006	0.487	–
[2], x2 = 0.5742	0.467	–
[2], x2 = 0.6631	0.417	–
[2], x2 = 0.7615	0.331	–
[2], x2 = 0.8485	0.226	–
[2], x2 = 0.9324	0.107	–

CCCCC(=O)OC [methyl pentanoate] + CCCCCCCC
Conditions	excess molar enthalpy [kcal/mol]	mass density [kg/m3]
[1], x2 = 0	–	884.84
[1], x2 = 0.0514	–	872.35
[1], x2 = 0.1005	–	860.71
[1], x2 = 0.161	–	846.85
[1], x2 = 0.2134	–	835.46
[1], x2 = 0.2601	–	825.47
[1], x2 = 0.3084	–	815.53
[1], x2 = 0.3625	–	804.47
[1], x2 = 0.4427	–	788.93
[1], x2 = 0.4558	–	786.45
[1], x2 = 0.5104	–	776.34
[1], x2 = 0.5504	–	769.1
[1], x2 = 0.6116	–	758.45
[1], x2 = 0.6541	–	751.22
[1], x2 = 0.7081	–	742.25
[1], x2 = 0.7535	–	734.86
[1], x2 = 0.8013	–	727.38
[1], x2 = 0.8518	–	719.71
[1], x2 = 0.9059	–	711.73
[1], x2 = 0.9521	–	705.03
[2], x2 = 0.0427	0.0387	–
[2], x2 = 0.0951	0.0805	–
[2], x2 = 0.1523	0.122	–
[2], x2 = 0.2098	0.158	–
[2], x2 = 0.2677	0.187	–
[2], x2 = 0.3234	0.211	–
[2], x2 = 0.377	0.228	–
[2], x2 = 0.4266	0.24	–
[2], x2 = 0.4619	0.249	–
[2], x2 = 0.4695	0.249	–
[2], x2 = 0.5113	0.252	–
[2], x2 = 0.5126	0.25	–
[2], x2 = 0.5411	0.249	–
[2], x2 = 0.5701	0.248	–
[2], x2 = 0.6364	0.236	–
[2], x2 = 0.709	0.212	–
[2], x2 = 0.7745	0.181	–
[2], x2 = 0.8541	0.131	–
[2], x2 = 0.9325	0.0547	–

CCCCC(=O)OC [methyl pentanoate]
Conditions	mass density [kg/m3]	refractive index
[3]	–	1.3968
[4]	884.84	–

CCCC(=O)OC [methyl butanoate] + CC(C)CC(C)(C)C
Conditions	excess molar enthalpy [kcal/mol]	mass density [kg/m3]
[1], x2 = 0	–	892.34
[1], x2 = 0.0344	–	881.71
[1], x2 = 0.0633	–	873.2
[1], x2 = 0.1096	–	860.1
[1], x2 = 0.1334	–	853.55
[1], x2 = 0.1539	–	848
[1], x2 = 0.2013	–	835.7
[1], x2 = 0.2471	–	824.1
[1], x2 = 0.2981	–	811.9
[1], x2 = 0.3973	–	789.58
[1], x2 = 0.441	–	780.3
[1], x2 = 0.5431	–	760
[1], x2 = 0.5901	–	751.22
[1], x2 = 0.6801	–	735.3
[1], x2 = 0.7243	–	727.9
[1], x2 = 0.8239	–	712.2
[1], x2 = 0.8708	–	705.2
[1], x2 = 0.8863	–	703.02
[1], x2 = 0.9158	–	698.8
[1], x2 = 0.9816	–	689.84
[2], x2 = 0.0389	0.0385	–
[2], x2 = 0.0858	0.0793	–
[2], x2 = 0.1367	0.119	–
[2], x2 = 0.1916	0.156	–
[2], x2 = 0.2446	0.186	–
[2], x2 = 0.2982	0.211	–
[2], x2 = 0.3481	0.23	–
[2], x2 = 0.3959	0.243	–
[2], x2 = 0.4256	0.251	–
[2], x2 = 0.4407	0.252	–
[2], x2 = 0.4767	0.254	–
[2], x2 = 0.5375	0.255	–
[2], x2 = 0.6052	0.246	–
[2], x2 = 0.6813	0.225	–
[2], x2 = 0.7629	0.189	–
[2], x2 = 0.8494	0.135	–
[2], x2 = 0.9353	0.0722	–

CCCCCCCC [octane] + CCCC(=O)OC
Conditions	mass density [kg/m3]
[1], x1 = 1	698.58

COC(C)=O [methyl ethanoate]
Conditions	mass density [kg/m3]	refractive index
[3]	–	1.3588
[4]	927.16	–

CCCC(=O)OC [methyl butanoate]
Conditions	mass density [kg/m3]	refractive index
[3]	–	1.3845
[4]	892.34	–

COC(C)=O [methyl ethanoate] + CCCC(=O)OC
Conditions	mass density [kg/m3]
[1], x2 = 0	927.16

CCCCCCCC [octane] + COC(C)=O
Conditions	mass density [kg/m3]
[1], x1 = 1	698.58
